Activity calls are given as the source filed them. The rule behind the calls is not given here.
Key:
Peritoneal macrophage = experiment: Antiinflammatory activity in ICR mouse primary peritoneal macrophages assessed as inhibition of LPS-induced IL-6 production at 20 uM preincubated for 60 mins followed by LPS stimulation and measured after 24 hrs by ELISA relative to control; assay type: functional
[1] = Cytotoxicity against ICR mouse primary peritoneal macrophages assessed as cell viability at 20 uM after 24 hrs by MTT assay relative to control; assay type: cell-based, Peritoneal macrophage; conditions: read-out: Activity
[2] = Cytotoxicity against rat H9c2 cells assessed as cell viability at 20 uM after 24 hrs by MTT assay relative to control; assay type: cell-based; conditions: read-out: Activity
[3] = target: Myeloid differentiation primary response protein MyD88 (Mus musculus) (UniProt P22366); experiment: Inhibition of MyD88 in ICR mouse primary peritoneal macrophages assessed as reduction in LPS-induced JNK phosphorylation at 20 uM preincubated for 30 mins followed by LPS-stimulation and measured after 20 mins by Western blot analysis
[4] = target: Myeloid differentiation primary response protein MyD88 (Mus musculus) (UniProt P22366); experiment: Inhibition of MyD88 in ICR mouse primary peritoneal macrophages assessed as reduction in LPS-induced IkappaB levels at 20 uM preincubated for 30 mins followed by LPS-stimulation and measured after 20 mins by Western blot analysis
[5] = target: Myeloid differentiation primary response protein MyD88 (Mus musculus) (UniProt P22366); experiment: Inhibition of MyD88 in ICR mouse primary peritoneal macrophages assessed as reduction in LPS-induced NFkappaB translocation at 20 uM preincubated for 30 mins followed by LPS-stimulation and measured after 20 mins by immunofluorescence microscopic analysis
Mus musculus [6] = experiment: Antiinflammatory activity in LPS-induced C57/BL6 mouse model of acute lung injury assessed as reduction in total protein levels in BALF at 10 mg/kg, ip pretreated for 30 mins followed by LPS challenge measured after 6 hrs; assay type: functional, organism-based
Mus musculus [7] = experiment: Antiinflammatory activity in LPS-induced C57/BL6 mouse model of acute lung injury assessed as reduction in IL6 level in BALF at 10 mg/kg, ip pretreated for 30 mins followed by LPS challenge measured after 6 hrs by ELISA; assay type: functional, organism-based
Mus musculus [8] = experiment: Antiinflammatory activity in LPS-induced C57/BL6 mouse model of acute lung injury assessed as reduction in pulmonary congestion at 10 mg/kg, ip pretreated for 30 mins followed by LPS challenge measured after 6 hrs by hematoxylin and eosin staining based microscopic analysis; assay type: functional, organism-based
Mus musculus [9] = experiment: Antiinflammatory activity in LPS-induced C57/BL6 mouse model of acute lung injury assessed as reduction in IL1beta mRNA expression at 10 mg/kg, ip pretreated for 30 mins followed by LPS challenge measured after 6 hrs by SYBR green dye based RT-qPCR analysis; assay type: functional, organism-based

Myeloid differentiation primary response protein MyD88 (Mus musculus), sequence (P22366 whole entry): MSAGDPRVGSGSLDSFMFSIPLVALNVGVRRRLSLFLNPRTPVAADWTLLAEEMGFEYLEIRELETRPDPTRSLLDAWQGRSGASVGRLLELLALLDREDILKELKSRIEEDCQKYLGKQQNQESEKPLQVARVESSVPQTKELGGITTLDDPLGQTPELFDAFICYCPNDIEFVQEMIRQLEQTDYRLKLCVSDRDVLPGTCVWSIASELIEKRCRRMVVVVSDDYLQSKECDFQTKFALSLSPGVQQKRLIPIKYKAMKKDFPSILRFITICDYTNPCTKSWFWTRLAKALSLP

For `COc1cc(-c2csc(NC(=O)CCN3CCN(Cc4cccc([N+](=O)[O-])c4)CC3)n2)ccc1O`, the inhibition at 20 µM (Peritoneal macrophage) was 95%, the viability at 24 h, 20 µM [1] was > 80% and the viability at 24 h, 20 µM [2] was > 80%. For the same molecule, the inhibition [3] was “Active”, the inhibition [4] was “Active” and the inhibition [5] was “Active”. For the same molecule, the Activity (Mus musculus [6]) was “Active”, the Activity (Mus musculus [7]) was “Active” and the Activity (Mus musculus [8]) was “Active”. For the same molecule, the Activity (Mus musculus [9]) was “Active”.
